Data published in the supplement of paper PMC10307832.

Tests used:
Test in all cases: relative viability (nuclei count vs DMSO), 5 days (fraction); higher = more cells survive
NCI-H322M = tested on: NCI-H322M
In short: (§1)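 Each reported value is a median over duplicate plates. It expresses relative viability: treated-well nuclei count divided by vehicle-well nuclei count. Lung cancer cell lines in 1536-well plates were dosed by pin tool a day after seeding, alone with one drug or with a fixed anchor-drug dose plus five library-drug doses (not always all listed) in √10 steps, and nuclei were counted after 5 days.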

201T = tested on: 201T
In short: as §1

HCC-827 = tested on: HCC-827
In short: as §1

NCI-H650 = tested on: NCI-H650
In short: as §1

EPLC-272H = tested on: EPLC-272H
In short: as §1

NCI-H2126 = tested on: NCI-H2126
In short: as §1

NCI-H647 = tested on: NCI-H647
In short: as §1

NCI-H661 = tested on: NCI-H661
In short: as §1

COR-L 105 = tested on: COR-L 105
In short: as §1

LC-2-ad = tested on: LC-2-ad
In short: as §1

NCI-H23 = tested on: NCI-H23
In short: as §1

LCLC-97TM1 = tested on: LCLC-97TM1
In short: as §1

RERF-LC-KJ = tested on: RERF-LC-KJ
In short: as §1

NCI-H1915 = tested on: NCI-H1915
In short: as §1

H3255 = tested on: H3255
In short: as §1

NCI-H2405 = tested on: NCI-H2405
In short: as §1

NCI-H2087 = tested on: NCI-H2087
In short: as §1

NCI-H2347 = tested on: NCI-H2347
In short: as §1

NCI-H520 = tested on: NCI-H520
In short: as §1

PC-14 = tested on: PC-14
In short: as §1

ChaGo-K-1 = tested on: ChaGo-K-1
In short: as §1

NCI-H1666 = tested on: NCI-H1666
In short: as §1

HCC-78 = tested on: HCC-78
In short: as §1

CC1(C)CCC(c2ccc(Cl)cc2)=C(CN2CCN(c3ccc(C(=O)NS(=O)(=O)c4ccc(N[C@H](CCN5CCOCC5)CSc5ccccc5)c(S(=O)(=O)C(F)(F)F)c4)cc3)CC2)C1 [Navitoclax] + O=C(CCCCCCC(=O)Nc1ccccc1)NO [Vorinostat] (partner 1 µM)
relative viability (NCI-H322M; first compound 0.005 µM): 1.02 | relative viability (NCI-H322M; first compound 0.01581 µM): 1.06 | relative viability (NCI-H322M; first compound 0.05 µM): 0.908 | relative viability (NCI-H322M; first compound 0.1581 µM): 0.843 | relative viability (NCI-H322M; first compound 0.5 µM): 0.999 | relative viability (201T; first compound 0.005 µM): 1.05 | relative viability (201T; first compound 0.01581 µM): 1.12 | relative viability (201T; first compound 0.05 µM): 0.89 | relative viability (201T; first compound 0.1581 µM): 0.937 | relative viability (201T; first compound 0.5 µM): 1.02 | relative viability (HCC-827; first compound 0.005 µM): 0.951 | relative viability (HCC-827; first compound 0.01581 µM): 0.902 | relative viability (HCC-827; first compound 0.05 µM): 0.619 | relative viability (HCC-827; first compound 0.1581 µM): 0.77 | relative viability (HCC-827; first compound 0.5 µM): 0.907 | relative viability (NCI-H650; first compound 0.005 µM): 0.503 | relative viability (NCI-H650; first compound 0.01581 µM): 0.448 | relative viability (NCI-H650; first compound 0.05 µM): 0.431 | relative viability (NCI-H650; first compound 0.1581 µM): 0.463 | relative viability (NCI-H650; first compound 0.5 µM): 0.453 | relative viability (EPLC-272H; first compound 0.005 µM): 0.521 | relative viability (EPLC-272H; first compound 0.01581 µM): 0.561 | relative viability (EPLC-272H; first compound 0.05 µM): 0.292 | relative viability (EPLC-272H; first compound 0.1581 µM): 0.385 | relative viability (EPLC-272H; first compound 0.5 µM): 0.282 | relative viability (NCI-H2126; first compound 0.005 µM): 0.789 | relative viability (NCI-H2126; first compound 0.01581 µM): 0.875 | relative viability (NCI-H2126; first compound 0.05 µM): 0.795 | relative viability (NCI-H2126; first compound 0.1581 µM): 0.761 | relative viability (NCI-H2126; first compound 0.5 µM): 0.681 | relative viability (NCI-H647; first compound 0.005 µM): 0.536 | relative viability (NCI-H647; first compound 0.01581 µM): 0.52 | relative viability (NCI-H647; first compound 0.05 µM): 0.673 | relative viability (NCI-H647; first compound 0.1581 µM): 0.405 | relative viability (NCI-H647; first compound 0.5 µM): 0.512 | relative viability (NCI-H661; first compound 0.005 µM): 0.769 | relative viability (NCI-H661; first compound 0.01581 µM): 0.727 | relative viability (NCI-H661; first compound 0.05 µM): 0.809 | relative viability (NCI-H661; first compound 0.1581 µM): 0.763 | relative viability (NCI-H661; first compound 0.5 µM): 0.772 | relative viability (COR-L 105; first compound 0.005 µM): 0.853 | relative viability (COR-L 105; first compound 0.01581 µM): 0.946 | relative viability (COR-L 105; first compound 0.05 µM): 0.858 | relative viability (COR-L 105; first compound 0.1581 µM): 0.778 | relative viability (COR-L 105; first compound 0.5 µM): 0.745 | relative viability (LC-2-ad; first compound 0.005 µM): 0.716 | relative viability (LC-2-ad; first compound 0.01581 µM): 0.686 | relative viability (LC-2-ad; first compound 0.05 µM): 0.665 | relative viability (LC-2-ad; first compound 0.1581 µM): 0.67 | relative viability (LC-2-ad; first compound 0.5 µM): 0.712 | relative viability (NCI-H23; first compound 0.005 µM): 0.594 | relative viability (NCI-H23; first compound 0.01581 µM): 0.468 | relative viability (NCI-H23; first compound 0.05 µM): 0.505 | relative viability (NCI-H23; first compound 0.1581 µM): 0.478 | relative viability (NCI-H23; first compound 0.5 µM): 0.544 | relative viability (LCLC-97TM1; first compound 0.005 µM): 0.857 | relative viability (LCLC-97TM1; first compound 0.01581 µM): 0.745 | relative viability (LCLC-97TM1; first compound 0.05 µM): 0.659 | relative viability (LCLC-97TM1; first compound 0.1581 µM): 0.717 | relative viability (LCLC-97TM1; first compound 0.5 µM): 0.979 | relative viability (RERF-LC-KJ; first compound 0.005 µM): 0.718 | relative viability (RERF-LC-KJ; first compound 0.01581 µM): 0.654 | relative viability (RERF-LC-KJ; first compound 0.05 µM): 0.645 | relative viability (RERF-LC-KJ; first compound 0.1581 µM): 0.673 | relative viability (RERF-LC-KJ; first compound 0.5 µM): 0.622 | relative viability (NCI-H1915; first compound 0.005 µM): 0.497 | relative viability (NCI-H1915; first compound 0.01581 µM): 0.499 | relative viability (NCI-H1915; first compound 0.05 µM): 0.556 | relative viability (NCI-H1915; first compound 0.1581 µM): 0.481 | relative viability (NCI-H1915; first compound 0.5 µM): 0.424 | relative viability (H3255; first compound 0.005 µM): 0.787 | relative viability (H3255; first compound 0.01581 µM): 0.958 | relative viability (H3255; first compound 0.05 µM): 0.874 | relative viability (H3255; first compound 0.1581 µM): 0.794 | relative viability (H3255; first compound 0.5 µM): 0.586 | relative viability (NCI-H2405; first compound 0.005 µM): 0.979 | relative viability (NCI-H2405; first compound 0.01581 µM): 1.09 | relative viability (NCI-H2405; first compound 0.05 µM): 1.11 | relative viability (NCI-H2405; first compound 0.1581 µM): 1 | relative viability (NCI-H2405; first compound 0.5 µM): 0.811 | relative viability (NCI-H2087; first compound 0.005 µM): 0.675 | relative viability (NCI-H2087; first compound 0.01581 µM): 0.467 | relative viability (NCI-H2087; first compound 0.1581 µM): 0.853 | relative viability (NCI-H2087; first compound 0.5 µM): 0.848 | relative viability (NCI-H2347; first compound 0.005 µM): 0.623 | relative viability (NCI-H2347; first compound 0.01581 µM): 0.628 | relative viability (NCI-H2347; first compound 0.05 µM): 0.534 | relative viability (NCI-H2347; first compound 0.1581 µM): 0.61 | relative viability (NCI-H2347; first compound 0.5 µM): 0.542 | relative viability (NCI-H520; first compound 0.005 µM): 0.743 | relative viability (NCI-H520; first compound 0.01581 µM): 0.817 | relative viability (NCI-H520; first compound 0.05 µM): 0.704 | relative viability (NCI-H520; first compound 0.1581 µM): 0.691 | relative viability (NCI-H520; first compound 0.5 µM): 0.749 | relative viability (PC-14; first compound 0.005 µM): 0.746 | relative viability (PC-14; first compound 0.01581 µM): 0.794 | relative viability (PC-14; first compound 0.05 µM): 0.59 | relative viability (PC-14; first compound 0.1581 µM): 0.712 | relative viability (PC-14; first compound 0.5 µM): 0.687 | relative viability (ChaGo-K-1; first compound 0.005 µM): 0.789 | relative viability (ChaGo-K-1; first compound 0.01581 µM): 0.786 | relative viability (ChaGo-K-1; first compound 0.05 µM): 0.496 | relative viability (ChaGo-K-1; first compound 0.1581 µM): 0.759 | relative viability (ChaGo-K-1; first compound 0.5 µM): 0.781 | relative viability (NCI-H1666; first compound 0.005 µM): 1 | relative viability (NCI-H1666; first compound 0.01581 µM): 1.04 | relative viability (NCI-H1666; first compound 0.05 µM): 1.03 | relative viability (NCI-H1666; first compound 0.1581 µM): 0.999 | relative viability (NCI-H1666; first compound 0.5 µM): 1.05 | relative viability (HCC-78; first compound 0.005 µM): 0.415 | relative viability (HCC-78; first compound 0.01581 µM): 0.49 | relative viability (HCC-78; first compound 0.05 µM): 0.429 | relative viability (HCC-78; first compound 0.1581 µM): 0.431 | relative viability (HCC-78; first compound 0.5 µM): 0.431
